In US20250101436A1, “APTAMERS AND SMALL MOLECULE LIGANDS” (MeiraGTx UK II Limited, priority 2021, published 2025):

Tested on: luciferase gene expression in HEK 293 cells in response to Comp. 004
Test: Screen of riboswitch constructs with 12C6-1 variant aptamers (libraries N1-N5) against Comp. 004, luciferase in HEK 293 cells
Format: cell-based, human
Settings: library N1 (J2-4), HEK 293, 25 M [sic] Comp. 004
Summary of the method: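 Riboswitch constructs carrying 12C6-1 aptamer variants, randomized in J2-4, J2-3/J3-3a/J3a-2/P3, L3a, J4-5/J5-4/P4 or L5 regions (libraries N1-N5), cloned into an intron-exon-intron cassette driving luciferase. Screened in HEK 293 cells with 25 µM Comp. 004; read-out is fold induction of gene expression versus parent Luci-12C6-1.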

| Substance | Fold (induction of luciferase gene expression) [fold] |
| --- | --- |
| N1_2E2 (CTGGGGAGTCCTTCATGCGGGGC; chemistry not given here) | 7.86 |
| N1_2H10 (CTGGGGAGTCCTTCATGCGGGGC; chemistry not given here) | 16.82 |

Same assay, conditions: library N2 variant aptamers (J2-3, P3-J3-3a, J3a-2 randomized) of 12C6-1 in riboswitch constructs; in response to Comp. 004; HEK 293 cells

| Substance | Fold (induction of luciferase gene expression) [fold] |
| --- | --- |
| N2_2A7 (CTGGGGAGTCCTTCATGC; chemistry not given here) | 0.9 |
| N2_2H10 (CTGGGGAGTCCTTCATGC; chemistry not given here) | 1.0 |
| N2_2B1 (CTGGGGAGTCCTTCATGC; chemistry not given here) | 1.0 |
| N2_2H6 (CTGGGGAGTCCTTCATGC; chemistry not given here) | 1.0 |
| N2_2F7 (DNA CTGGGGAGTCCTTCATGC; chemistry not given here) | 1.0 |
| N2_2D5 (DNA CTGGGGAGTCCTTCATGC; chemistry not given here) | 0.6 |

Same assay, conditions: library N5 variant aptamers (L5, X16-X21 randomized) of 12C6-1 in riboswitch constructs; in response to Comp. 004 treatment; HEK 293 cells

| Substance | Fold (induction of luciferase gene expression) [fold] |
| --- | --- |
| N5_1F1 (CTGGGGAGTCCT; chemistry not given here) | 557.2 |
| N5_11G4 (CTGGGGAGTCCT; chemistry not given here) | 931.9 |
| N5_13H3 (CTGGGGAGTCCT; chemistry not given here) | 1288.5 |
| N5_2E6 (CTGGGGAGTCCT; chemistry not given here) | 685.6 |
| N5_7E1 (DNA CTGGGGAGTCCT; chemistry not given here) | 1733.0 |
| N5_1A6 (CTGGGGAGTCCT; chemistry not given here) | 638.8 |
| N5_7A1 (CTGGGGAGTCCT; chemistry not given here) | 897.3 |
| N5_4D7 (CTGGGGAGTCCT; chemistry not given here) | 588.1 |
| N5_13G12 (CTGGGGAGTCCT; chemistry not given here) | 1199.4 |
| N5_12G2 (CTGGGGAGTCCT; chemistry not given here) | 1074.1 |
| N5_1A11 (CTGGGGAGTCCT; chemistry not given here) | 793.5 |
| N5_3D8 (CTGGGGAGTCCT; chemistry not given here) | 824.4 |
| N5_1D4 (CTGGGGAGTCCT; chemistry not given here) | 522.9 |
| N5_7B10 (CTGGGGAGTCCT; chemistry not given here) | 1361.5 |
| N5_7D3 (DNA CTGGGGAGTCCT; chemistry not given here) | 1075.7 |
| N5_1E10 (CTGGGGAGTCCT; chemistry not given here) | 1026.1 |
| N5_5D9 (CTGGGGAGTCCT; chemistry not given here) | 712.5 |
| N5_8D1 (DNA CTGGGGAGTCCT; chemistry not given here) | 1139.6 |
| N5_1G10 (CTGGGGAGTCCT; chemistry not given here) | 1000.2 |
| N5_8F11 (DNA CTGGGGAGTCCT; chemistry not given here) | 1282.8 |
| N5_1C7 (CTGGGGAGTCCT; chemistry not given here) | 485.7 |
| N5_2G5 (CTGGGGAGTCCT; chemistry not given here) | 715.9 |
| N5_9E6 (DNA CTGGGGAGTCCT; chemistry not given here) | 1020.7 |
| N5_7G9 (DNA CTGGGGAGTCCT; chemistry not given here) | 841.7 |
